ChEMBL document CHEMBL3880390, “Agents for preventing and treating disorders involving modulation of the RYR receptors” (2014)
Active and inactive are the calls of the source. The rule behind the calls is not given here.

Key:
hERG (KCNH2) [1] = molecular target: T1, hERG (KCNH2) (Homo sapiens, UniProt Q12809); experiment: Inhibition of human ERG expressed in HEK293 cells at 10 uM after 5 mins at -80 mV holding potential by patch clamp assay; assay type: cell-based; conditions: HEK293 cells expressing human ERG
hERG (KCNH2) [2] = molecular target: T1, hERG (KCNH2); experiment: Inhibition of human ERG expressed in HEK293 cells at 0.1 uM after 5 mins at -80 mV holding potential by patch clamp assay; assay type: cell-based; conditions: HEK293 cells expressing human ERG
hERG (KCNH2) [3] = molecular target: T1, hERG (KCNH2); experiment: Inhibition of human ERG expressed in HEK293 cells at 1 uM after 5 mins at -80 mV holding potential by patch clamp assay; assay type: cell-based; conditions: HEK293 cells expressing human ERG
hERG (KCNH2) [4] = molecular target: T1, hERG (KCNH2); experiment: Inhibition of human ERG expressed in HEK293 cells at 0.01 uM after 5 mins at -80 mV holding potential by patch clamp assay; assay type: cell-based; conditions: HEK293 cells expressing human ERG
[5] = Cardiotoxicity in haploinsufficient FKBP12.6 expressing mouse assessed as reduction in non-sustained ventricular tachycardia at 0.2 to 1 uM under testing exercise followed by epinephrine injection relative to control; assay type: toxicity; conditions: in vivo
Ryanodine receptor 2 [6] = molecular target: T2, Ryanodine receptor 2 (Homo sapiens, UniProt Q92736); experiment: Induction of FKBP12.6 re-binding to PKA-phosphorylated-RyR2 (unknown origin) after 30 mins in presence of [35S]-FKBP12.6 by liquid scintillation counting
Mus musculus [7] = experiment: Antiarrhythmic activity in haploinsufficient FKBP12.6 expressing mouse assessed as plasma concentration showing prevention of cardiac arrhythmias dosed via osmotic mini-pump under testing exercise followed by epinephrine injection relative to control; assay type: functional, organism-based
Ryanodine receptor 2 [8] = molecular target: T2, Ryanodine receptor 2; experiment: Induction of FKBP12.6 re-binding to PKA-phosphorylated-RyR2 (unknown origin) at 10 to 1000 nM after 30 mins in presence of [35S]-FKBP12.6 by liquid scintillation counting
Mus musculus [9] = organism: Mus musculus; experiment: Induction of cardiac function improvement in myocardial infarction-induced acute heart failure mouse model subjected to permanent ligation of left anterior descending coronary artery assessed as increase in fractional shortening at plasma concentration of 100 to 200 nM after 2 weeks post myocardial infarction by echocardiography; assay type: functional
Mus musculus [10] = organism: Mus musculus; experiment: Induction of cardiac function improvement in myocardial infarction-induced acute heart failure mouse model at plasma concentration 200 nM after 7 days post myocardial infarction; assay type: functional
Mus musculus [11] = experiment: Antiarrhythmic activity in haploinsufficient FKBP12.6 expressing mouse assessed as plasma concentration showing prevention of sudden cardiac death dosed via osmotic mini-pump under testing exercise followed by epinephrine injection relative to control; assay type: functional, organism-based
Ryanodine receptor 2 [12] = molecular target: T2, Ryanodine receptor 2; experiment: Induction of normalization of single channel closed state of wild type PKA phosphorylated RyR2 (unknown origin) assessed as channel open probability at 0.1 umol/L relative to control
Mus musculus [13] = organism: Mus musculus; experiment: Antiarrhythmic activity in haploinsufficient FKBP12.6 expressing mouse assessed as reduction in sustained ventricular tachycardia at 0.2 to 1 uM under testing exercise followed by epinephrine injection relative to control; assay type: functional
Mus musculus [14] = organism: Mus musculus; experiment: Induction of cardiac function improvement in myocardial infarction-induced acute heart failure mouse model subjected to permanent ligation of left anterior descending coronary artery assessed as increase in cardiac contractility at plasma concentration 200 nM after 7 days post myocardial infarction; assay type: functional
Ryanodine receptor 2 [15] = molecular target: T2, Ryanodine receptor 2; experiment: Induction of calstabin-2 binding to RyR2 P2328S mutant (unknown origin) at 0.1 umol/L
Ryanodine receptor 2 [16] = molecular target: T2, Ryanodine receptor 2; experiment: Induction of normalization of single channel closed state of PKA phosphorylated RyR2 P2328S mutant (unknown origin) assessed as channel open probability level at 0.1 umol/L (reference value: 14.4%)

T2 sequence (Q92736 whole entry): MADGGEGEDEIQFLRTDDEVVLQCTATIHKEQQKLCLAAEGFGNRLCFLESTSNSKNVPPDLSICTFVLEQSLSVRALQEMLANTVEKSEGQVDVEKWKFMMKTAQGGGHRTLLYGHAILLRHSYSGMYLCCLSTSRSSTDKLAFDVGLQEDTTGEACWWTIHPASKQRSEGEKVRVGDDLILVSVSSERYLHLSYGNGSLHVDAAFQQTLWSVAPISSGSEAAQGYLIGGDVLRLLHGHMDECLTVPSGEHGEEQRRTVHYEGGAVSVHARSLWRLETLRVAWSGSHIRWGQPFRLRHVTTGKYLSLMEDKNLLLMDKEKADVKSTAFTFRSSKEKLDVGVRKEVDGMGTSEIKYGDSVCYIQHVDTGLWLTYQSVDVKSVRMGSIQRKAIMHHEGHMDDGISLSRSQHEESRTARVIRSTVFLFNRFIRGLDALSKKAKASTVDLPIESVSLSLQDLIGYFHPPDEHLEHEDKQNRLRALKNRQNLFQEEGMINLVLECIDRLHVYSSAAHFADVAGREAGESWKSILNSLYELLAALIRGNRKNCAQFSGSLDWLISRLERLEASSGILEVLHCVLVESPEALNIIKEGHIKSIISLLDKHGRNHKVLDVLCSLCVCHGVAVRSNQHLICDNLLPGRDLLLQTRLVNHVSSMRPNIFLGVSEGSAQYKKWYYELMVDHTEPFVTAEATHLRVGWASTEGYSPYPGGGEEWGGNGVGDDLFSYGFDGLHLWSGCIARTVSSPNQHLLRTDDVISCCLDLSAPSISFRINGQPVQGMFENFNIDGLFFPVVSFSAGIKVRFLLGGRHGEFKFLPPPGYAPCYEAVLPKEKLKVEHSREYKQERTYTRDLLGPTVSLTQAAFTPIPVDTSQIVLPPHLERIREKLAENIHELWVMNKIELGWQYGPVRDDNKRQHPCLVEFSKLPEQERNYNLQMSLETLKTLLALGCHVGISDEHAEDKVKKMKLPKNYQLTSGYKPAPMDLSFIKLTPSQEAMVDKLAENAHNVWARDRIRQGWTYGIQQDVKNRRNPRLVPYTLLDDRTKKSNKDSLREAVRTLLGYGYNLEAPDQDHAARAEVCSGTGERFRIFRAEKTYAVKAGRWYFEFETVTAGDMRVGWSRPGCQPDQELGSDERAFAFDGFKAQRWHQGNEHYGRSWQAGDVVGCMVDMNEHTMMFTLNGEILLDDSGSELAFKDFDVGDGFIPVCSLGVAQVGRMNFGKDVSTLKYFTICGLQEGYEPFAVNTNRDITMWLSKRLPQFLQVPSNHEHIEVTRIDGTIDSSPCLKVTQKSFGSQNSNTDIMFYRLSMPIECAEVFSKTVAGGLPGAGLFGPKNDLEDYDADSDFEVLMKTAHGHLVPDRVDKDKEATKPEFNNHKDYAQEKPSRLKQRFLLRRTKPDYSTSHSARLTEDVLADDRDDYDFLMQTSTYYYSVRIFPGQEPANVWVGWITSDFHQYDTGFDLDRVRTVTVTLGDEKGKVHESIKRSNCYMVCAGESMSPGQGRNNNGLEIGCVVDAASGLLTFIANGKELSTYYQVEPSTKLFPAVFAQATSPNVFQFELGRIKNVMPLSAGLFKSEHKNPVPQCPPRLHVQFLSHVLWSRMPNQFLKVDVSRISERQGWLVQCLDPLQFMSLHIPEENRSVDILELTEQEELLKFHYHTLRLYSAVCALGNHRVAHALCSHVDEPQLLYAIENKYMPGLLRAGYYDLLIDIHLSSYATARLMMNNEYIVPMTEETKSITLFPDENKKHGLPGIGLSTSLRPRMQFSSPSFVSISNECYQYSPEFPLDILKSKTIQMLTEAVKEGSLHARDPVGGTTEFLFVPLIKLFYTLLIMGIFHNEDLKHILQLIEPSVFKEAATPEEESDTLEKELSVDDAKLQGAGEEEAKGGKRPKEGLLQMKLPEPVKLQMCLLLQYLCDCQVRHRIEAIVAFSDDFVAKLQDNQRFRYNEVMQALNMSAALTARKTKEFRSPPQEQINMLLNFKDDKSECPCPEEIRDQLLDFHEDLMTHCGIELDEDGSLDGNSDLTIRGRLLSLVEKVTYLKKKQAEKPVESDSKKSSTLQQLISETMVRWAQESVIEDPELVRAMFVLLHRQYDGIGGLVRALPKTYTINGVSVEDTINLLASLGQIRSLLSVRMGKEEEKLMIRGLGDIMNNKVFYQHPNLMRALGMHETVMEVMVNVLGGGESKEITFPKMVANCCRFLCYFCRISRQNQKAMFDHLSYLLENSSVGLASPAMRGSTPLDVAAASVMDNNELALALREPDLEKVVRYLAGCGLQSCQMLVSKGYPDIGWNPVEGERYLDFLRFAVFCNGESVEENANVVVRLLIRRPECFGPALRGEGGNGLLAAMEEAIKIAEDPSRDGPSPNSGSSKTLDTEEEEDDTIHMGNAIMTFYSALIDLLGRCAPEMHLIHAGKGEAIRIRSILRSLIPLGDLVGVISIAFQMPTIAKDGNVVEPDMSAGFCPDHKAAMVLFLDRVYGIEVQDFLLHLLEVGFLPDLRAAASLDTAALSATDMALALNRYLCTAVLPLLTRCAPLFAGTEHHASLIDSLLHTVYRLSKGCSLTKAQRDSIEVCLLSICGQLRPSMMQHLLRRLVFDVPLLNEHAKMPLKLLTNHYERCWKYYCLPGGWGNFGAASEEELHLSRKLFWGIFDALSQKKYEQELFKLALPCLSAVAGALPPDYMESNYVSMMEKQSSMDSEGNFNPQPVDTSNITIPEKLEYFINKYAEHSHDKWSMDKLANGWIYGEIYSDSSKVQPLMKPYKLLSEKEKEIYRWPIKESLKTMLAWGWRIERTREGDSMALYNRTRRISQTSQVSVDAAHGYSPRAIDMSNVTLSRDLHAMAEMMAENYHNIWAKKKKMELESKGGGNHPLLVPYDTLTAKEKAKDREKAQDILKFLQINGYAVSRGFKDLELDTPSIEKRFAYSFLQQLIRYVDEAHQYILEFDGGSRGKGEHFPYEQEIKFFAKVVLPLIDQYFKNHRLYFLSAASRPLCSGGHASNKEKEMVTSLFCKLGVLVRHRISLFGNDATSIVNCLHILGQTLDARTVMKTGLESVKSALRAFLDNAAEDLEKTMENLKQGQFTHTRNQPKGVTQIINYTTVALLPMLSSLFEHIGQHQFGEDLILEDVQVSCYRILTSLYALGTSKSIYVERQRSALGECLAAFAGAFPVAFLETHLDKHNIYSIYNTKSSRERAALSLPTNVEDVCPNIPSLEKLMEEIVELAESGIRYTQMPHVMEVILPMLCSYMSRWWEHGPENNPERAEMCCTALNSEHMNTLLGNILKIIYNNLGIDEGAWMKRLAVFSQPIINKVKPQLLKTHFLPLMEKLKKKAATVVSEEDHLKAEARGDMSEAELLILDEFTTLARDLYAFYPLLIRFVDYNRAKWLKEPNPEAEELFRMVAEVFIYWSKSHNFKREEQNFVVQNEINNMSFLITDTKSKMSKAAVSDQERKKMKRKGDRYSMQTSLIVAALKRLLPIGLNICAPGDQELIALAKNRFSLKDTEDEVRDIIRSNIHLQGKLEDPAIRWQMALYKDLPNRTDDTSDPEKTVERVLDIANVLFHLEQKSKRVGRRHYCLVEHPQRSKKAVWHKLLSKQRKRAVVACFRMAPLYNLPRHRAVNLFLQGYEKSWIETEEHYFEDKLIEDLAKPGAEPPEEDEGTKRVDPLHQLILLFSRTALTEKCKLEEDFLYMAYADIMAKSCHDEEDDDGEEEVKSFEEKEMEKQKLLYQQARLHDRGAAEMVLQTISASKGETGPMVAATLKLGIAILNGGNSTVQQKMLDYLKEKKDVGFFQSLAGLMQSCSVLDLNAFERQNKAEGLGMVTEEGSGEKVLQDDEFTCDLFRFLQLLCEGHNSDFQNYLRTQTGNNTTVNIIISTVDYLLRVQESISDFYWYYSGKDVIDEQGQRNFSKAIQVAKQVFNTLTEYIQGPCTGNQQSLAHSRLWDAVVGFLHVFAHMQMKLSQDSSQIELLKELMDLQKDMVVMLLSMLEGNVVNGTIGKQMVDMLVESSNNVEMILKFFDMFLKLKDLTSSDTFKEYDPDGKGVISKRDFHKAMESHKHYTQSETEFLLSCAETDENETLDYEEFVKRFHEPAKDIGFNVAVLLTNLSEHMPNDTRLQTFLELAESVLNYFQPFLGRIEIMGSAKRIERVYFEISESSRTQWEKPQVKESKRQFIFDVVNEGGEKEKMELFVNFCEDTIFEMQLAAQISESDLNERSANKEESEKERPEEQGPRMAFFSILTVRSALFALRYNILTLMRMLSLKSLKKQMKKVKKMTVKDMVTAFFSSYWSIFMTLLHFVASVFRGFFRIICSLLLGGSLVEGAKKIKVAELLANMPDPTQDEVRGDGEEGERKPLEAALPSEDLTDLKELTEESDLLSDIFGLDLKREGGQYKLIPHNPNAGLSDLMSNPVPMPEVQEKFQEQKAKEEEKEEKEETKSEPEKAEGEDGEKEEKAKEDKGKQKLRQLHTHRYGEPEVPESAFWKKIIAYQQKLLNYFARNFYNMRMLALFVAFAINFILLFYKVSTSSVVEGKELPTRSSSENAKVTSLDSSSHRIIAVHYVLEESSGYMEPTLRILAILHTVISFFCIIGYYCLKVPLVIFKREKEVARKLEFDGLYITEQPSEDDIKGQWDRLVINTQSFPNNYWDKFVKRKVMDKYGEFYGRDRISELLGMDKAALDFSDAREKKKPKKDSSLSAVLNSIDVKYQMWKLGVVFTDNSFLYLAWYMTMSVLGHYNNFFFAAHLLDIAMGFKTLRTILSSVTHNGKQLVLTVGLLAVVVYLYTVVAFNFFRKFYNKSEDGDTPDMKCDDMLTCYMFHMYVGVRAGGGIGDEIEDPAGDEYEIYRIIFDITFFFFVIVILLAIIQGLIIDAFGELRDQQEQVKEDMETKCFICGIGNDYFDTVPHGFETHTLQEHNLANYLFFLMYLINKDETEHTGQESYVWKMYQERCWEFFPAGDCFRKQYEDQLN

| Compound | inhibition at 5 min, 10 µM (hERG (KCNH2) [1]) [%] | inhibition at 5 min, 0.1 µM (hERG (KCNH2) [2]) [%] | inhibition at 5 min, 1 µM (hERG (KCNH2) [3]) [%] | inhibition at 5 min, 0.01 µM (hERG (KCNH2) [4]) [%] | further results |
| --- | --- | --- | --- | --- | --- |
| COc1ccc2c(c1)CN(C(=O)C(=O)O)CCS2(=O)=O | 7.4 | 2.5 | 4.6 | 1.6 |  |
| O=C(N1CCCCC1)N1CCSc2ccccc2C1 | 47.3 | 4.2 | 5.7 | 2.5 |  |
| COc1ccc2c(c1)CN(C(=O)C(=O)O)CCS2 [ALADORIAN] |  |  |  |  | Activity [5]: Non-Toxic |
| O=C(NO)N1CCSc2ccccc2C1 | 9.5 | 4.8 | 1.3 | 1.9 |  |
| C=CC(=O)N1CCSc2ccc(OC)cc2C1 |  |  |  |  | EC50 (Ryanodine receptor 2 [6]): 50 nM |
| COc1ccc2c(c1)CN(C(=O)N1CCN(Cc3ccc4c(c3)OCO4)CC1)CCS2 | 78 | 9.7 | 29.6 | 2.7 |  |
| COc1ccc2c(c1)CN(C(=O)N1CCCCC1)CCS2 | 24.2 | 3.7 | 6.1 | 1.8 |  |
| O=C(O)C(=O)N1CCSc2ccccc2C1 | 4.1 | 7.5 | 3.6 | 1.3 |  |
| COc1ccc2c(c1)CN(C(=O)C(=O)O)CCS2 [ALADORIAN SODIUM] | 6.7 | 6 | 5.5 | 0.2 |  |
| COc1ccc2c(c1)CN(C(=O)C(=O)O)CCS2 |  |  |  |  | Cp (Mus musculus [7]): 0.02 to 1 µM; Activity (Ryanodine receptor 2 [8]): Active; Activity (Mus musculus [9]): Active; Activity (Mus musculus [10]): Active; Cp (Mus musculus [11]): 0.02 to 1 µM; Activity (Ryanodine receptor 2 [12]): Active; Activity (Mus musculus [13]): Active; Activity (Mus musculus [14]): Active; Activity (Ryanodine receptor 2 [15]): Active; Activity (Ryanodine receptor 2 [16]): 0.3% |
